The text below walks through data of US7208503B2, “Angiogenesis inhibiting 5-substituted-1,2,4-thiadiazolyl derivatives” (Janssen Pharmaceutica N.V., priority 2000, dated 2007).

The IC50 is the point on the concentration scale where inhibition reaches its midpoint.

The subject of this assay is rat aortic ring microvessel formation. The experiment in a line: rat aortic ring model of angiogenesis (microvessel formation). The assay is classed as cell-based. To be noted: 192 h; in vitro rat aortic rings, microvessel area after eight days in culture, compared to vehicle-treated control rings; read-out: IC50 (inhibition of microvessel formation, angiogenesis inhibitory activity). As to the method:
Angiogenesis inhibitory activity was measured in vitro using the rat aortic ring model of angiogenesis as described by Nicosia, R. F. and Ottinetti in “Laboratory Investigation”, vol. 63, p. 115, 1990. The ability of compounds to inhibit microvessel formation was compared to vehicle-treated control rings. Quantitation (microvessel area) following eight days in culture was performed using an image analysis system, consisting of a light microscope, a CCD camera and an automated, custom-designed image analysis program as described by Nissanov, J., Tuman, R. W., Gruver, L. M., and Fortunato, J. M. in “Laboratory Investigation”, vol 73 (#5), p. 734, 1995. Compounds were tested at several concentrations for determination of inhibitory potency (IC50's).

A value given as a limit tells only on which side of the number the result lay.

In the case of `Cc1nsc(-c2ccc(N3CCN(c4cccc(C(F)(F)F)c4)CC3)cc2)n1` [Compound 2, 1-[4-(3-methyl-1,2,4-thiadiazol-5-yl)phenyl]-4-[3-(trifluoromethyl)phenyl]piperazine], the IC50 was under 10 nM.
On to `Cc1nsc(-c2ccc(N3CCN(c4cccc(C(F)(F)F)c4)CC3)nc2)n1` [Compound 6, 1-[5-(3-methyl-1,2,4-thiadiazol-5-yl)-2-pyridinyl]-4-[3-(trifluoromethyl)-phenyl]-piperazine], for which the IC50 is under 10 nM.
